Reference: patent US20240254129A1, “HETEROCYCLIC COMPOUNDS AND USES THEREOF” (Kumquat Biosciences Inc., priority 2021, published 2024)
Like-named read-outs stand apart in the source and are kept apart here.

Legend:
[1] = target: GST-tagged K-Ras mutant / His-tagged hSOS1 (Homo sapiens, UniProt P01116); assay: HTRF assay, K-Ras mutant / SOS1 interaction; assay type: binding; settings: read-out: IC50 against mutant Kras
Outline: (§1)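 Inhibition of wildtype or mutant K-Ras binding to hSOS1 is measured by FRET between antibody-bound Eu donor and XL665 acceptor. Protein levels are matched to the IC50 range under study. The 665/620 nm signal after ≥10 min yields IC50.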

wildtype Kras / hSOS1 = target: T1, wildtype Kras / hSOS1 (Homo sapiens, UniProt P01116); assay: HTRF assay, wildtype Kras / SOS1 interaction; assay type: binding; settings: read-out: IC50 against wildtype Kras
T1 construct: made in house; host or cells: E. coli BL21 (DE3)
T1 sequence (P01116 1-188 isoform P01116-2): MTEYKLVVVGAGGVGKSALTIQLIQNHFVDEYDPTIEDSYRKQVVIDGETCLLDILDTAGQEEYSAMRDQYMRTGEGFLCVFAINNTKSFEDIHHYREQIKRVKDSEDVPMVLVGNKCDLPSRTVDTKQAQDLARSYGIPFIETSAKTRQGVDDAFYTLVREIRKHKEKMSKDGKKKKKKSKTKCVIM
Outline: as §1

GST-tagged K-Ras mutant / His-tagged hSOS1, sequence (P01116 whole entry G12D, form open): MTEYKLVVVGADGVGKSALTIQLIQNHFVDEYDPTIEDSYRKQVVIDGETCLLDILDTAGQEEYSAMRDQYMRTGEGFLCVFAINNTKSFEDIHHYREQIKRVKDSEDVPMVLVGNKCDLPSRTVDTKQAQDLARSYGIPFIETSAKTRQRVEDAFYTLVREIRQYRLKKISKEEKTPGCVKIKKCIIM

Row | SMILES | IC50 ([1]; compound nos. 301-306) | IC50 (wildtype Kras / hSOS1; compound nos. 301-306) | IC50 ([1]; compound nos. 401-703) | IC50 (wildtype Kras / hSOS1; compound nos. 401-703)
1 | Nc1nc2c(-c3c(Cl)cc4c(N5[C@@H]6CC[C@H]5CC(F)C6)nc(OC[C@@]56CCCN5C[C@H](F)C6)nc4c3F)ccc(F)c2s1 (stereo partly drawn) [Compound 304, 4-(6-chloro-8-fluoro-4-((1R,3S,5S)-3-fluoro-8-azabicyclo[3.2.1]octan-8-yl)-2-(((2R,7aS)-2-fluoro-tetrahydro-1H-pyrrolizin-7a(5H)-yl)methoxy)quin-azolin-7-yl)-7-fluorobenzo-[d]thiazol-2-amine] | < 1.5 µM | < 1.5 µM |  | 
2 | Nc1nc2c(-c3c(Cl)cc4c(N5[C@@H]6CCC[C@H]5C[C@H](O)C6)nc(OC[C@@]56CCCN5C[C@H](F)C6)nc4c3F)ccc(F)c2s1 [Compound 305, (1R,3R,5S)-9-(7-(2-amino-7-fluorobenzo[d]thiazol-4-yl)-6-chloro-8-fluoro-2-(((2R,7aS)-2-fluorotetra-hydro-1H-pyrrolizin-7a(5H)-yl)methoxy)quinazolin-4-yl)-9-azabicyclo[3.3.1]-nonan-3-ol] | < 1.5 µM | < 1.5 µM |  | 
3 | CN1CCC[C@H]1COc1nc(N2[C@@H]3CC[C@H]2CNC3)c2cc(Cl)c(-c3cccc4sc(N)nc34)c(F)c2n1 [Compound 306, 4-(4-((1R,5S)-3,8-diaza-bicyclo[3.2.1]octan-8-yl)-6-chloro-8-fluoro-2-(((S)-1-methylpyrrolidin-2-yl)meth-oxy)quinazolin-7-yl)benzo-[d]thiazol-2-amine] | < 1.5 µM | < 1.5 µM |  | 
4 | N#CC1C2CCC1CN(c1nc(OC[C@@]34CCCN3C[C@H](F)C4)nc3c(F)c(-c4ccc(F)c5sc(N)nc45)c(Cl)cc13)C2 (stereo partly drawn) [Compound 403, (1R,5S,8S)-3-(7-(2-amino-7-fluorobenzo[d]thiazol-4-yl)-6-chloro-8-fluoro-2-(((2R,7aS)-2-fluorotetra-hydro-1H-pyrrolizin-7a(5H)-yl)methoxy)quinazolin-4-yl)-3-azabicyclo[3.2.1]-octane-8-carbonitrile] |  |  | < 0.5 µM | < 0.5 µM
5 | Nc1nc2c(-c3cc4c(=O)n(CCN5CCCC5)nc(N5C[C@H]6CC[C@@H](C5)N6)c4cc3Cl)ccc(F)c2s1 [Compound 404, 7-(2-amino-7-fluorobenzo[d]thiazol-4-yl)-4-((1R,5S)-3,8-diazabicyclo[3.2.1]octan-3-yl)-6-chloro-2-(2-(pyrrolidin-1-yl)ethyl)phthalazin-1(2H)-one] |  |  | > 0.5 µM | < 0.5 µM
6 | N#Cc1c(N)sc2c(F)ccc(-c3c(Cl)cc4c(N5CCNCC(F)(F)C5)nc(OC[C@@]56CCCN5C[C@H](F)C6)nc4c3F)c12 [Compound 405, 2-amino-4-(6-chloro-4-(6,6-difluoro-1,4-diazepan-1-yl)-8-fluoro-2-(((2R,7aS)-2-fluorotetrahydro-1H-pyr-rolizin-7a(5H)-yl)methoxy)-quinazolin-7-yl)-7-fluoro-benzo[b]thiophene-3-carbonitrile] |  |  | > 0.5 µM | < 0.5 µM
7 | NCC1C2CCC1CN(c1nc(OCC34CCCN3CCC4)nc3c(F)c(-c4ccc(F)c5sc(N)nc45)c(Cl)cc13)C2 [Compound 406, 4-(4-((1R,5S,8r)-8-(amino-methyl)-3-azabicyclo[3.2.1]-octan-3-yl)-6-chloro-8-fluoro-2-((tetrahydro-1H-pyrrolizin-7a(5H)-yl)meth-oxy)quinazolin-7-yl)-7-fluorobenzo[d]thiazol-2-amine] |  |  | < 0.5 µM | < 0.5 µM
8 | Nc1nc2c(-c3c(Cl)cc4c(N5CCCC(O)CC5)nc(OC[C@@]56CCCN5C[C@H](F)C6)nc4c3F)ccc(F)c2s1 (stereo partly drawn) [Compound 407, 1-(7-(2-amino-7-fluoro-benzo[d]thiazol-4-yl)-6-chloro-8-fluoro-2-(((2R,7aS)-2-fluorotetrahydro-1H-pyr-rolizin-7a(5H)-yl)methoxy)-quinazolin-4-yl)azepan-4-ol] |  |  | < 0.5 µM | < 0.5 µM
9 | Nc1nc2c(-c3ccc4c(N5C[C@H]6CCNCC[C@H]6C5)nc(OC[C@@]56CCCN5C[C@H](F)C6)nc4c3F)ccc(F)c2s1 [Compound 408, 7-fluoro-4-(8-fluoro-2-(((2R,7aS)-2-fluorotetra-hydro-1H-pyrrolizin-7a(5H)-yl)methoxy)-4-((3aR,8aS)-octahydropyrrolo[3,4-d]-azepin-2(1H)-yl)quinazolin-7-yl)benzo[d]thiazol-2-amine] |  |  | > 0.5 µM | < 0.5 µM
10 | Oc1cc(-c2c(Cl)cc3c(N4CC5CCC(C4)N5)nc(OCC45CCCC4CCC5)nc3c2F)c2ccccc2c1 (centres unmarked) [Compound 410, 4-(4-(3,8-diazabicyclo-[3.2.1]octan-3-yl)-6-chloro-8-fluoro-2-((hexahydro-pentalen-3a(1H)-yl)meth-oxy)quinazolin-7-yl)naph-thalen-2-ol] |  |  | > 0.5 µM | < 0.5 µM
11 | Nc1nc2c(-c3c(Cl)cc4c(N5CC6CCC(C5)N6)nc(OCC5(CN6CCC(F)(F)C6)CC5)nc4c3F)ccc(F)c2s1 [Compound 411, 4-(4-(3,8-diazabicyclo-[3.2.1]octan-3-yl)-6-chloro-2-((1-((3,3-difluoropyrrol-idin-1-yl)methyl)cycloprop-yl)methoxy)-8-fluoroquin-azolin-7-yl)-7-fluorobenzo-[d]thiazol-2-amine] |  |  | > 0.5 µM | < 0.5 µM
12 | Nc1nc2c(-c3ccc4c(N5CC6CCC(C5)N6)nc(OCC56CCCN5CCC6)nc4n3)ccc(F)c2s1 [Compound 412, 4-(4-(3,8-diazabicyclo-[3.2.1]octan-3-yl)-2-((tetra-hydro-1H-pyrrolizin-7a(5H)-yl)methoxy)pyrido[2,3-d]-pyrimidin-7-yl)-7-fluoro-benzo[d]thiazol-2-amine] |  |  | > 0.5 µM | < 0.5 µM
13 | Nc1nc2c(-c3c(Cl)cc4c(N5C[C@H]6CC[C@@H](C5)[C@@H]6N)nc(OCC56CCCN5CCC6)nc4c3F)ccc(F)c2s1 [Compound 413, 4-(4-((1R,5S,8s)-8-amino-3-azabicyclo[3.2.1]octan-3-yl)-6-chloro-8-fluoro-2-((tetra-hydro-1H-pyrrolizin-7a(5H)-yl)methoxy)quinazolin-7-yl)-7-fluorobenzo[d]thiazol-2-amine] |  |  | < 0.5 µM | < 0.5 µM
14 | CN1CCC[C@H]1COc1nc(N2CCCC(C(=O)O)CC2)c2cc(Cl)c(-c3cccc4sc(N)nc34)c(F)c2n1 (stereo partly drawn) [Compound 414, 1-(7-(2-aminobenzo[d]-thiazol-4-yl)-6-chloro-8-fluoro-2-(((S)-1-methyl-pyrrolidin-2-yl)methoxy)-quinazolin-4-yl)azepane-4-carboxylic acid] |  |  | > 0.5 µM | < 0.5 µM
15 | CC1CCCN(c2nc(OC[C@@H]3CCCN3C)nc3c(F)c(-c4cccc5sc(N)nc45)c(Cl)cc23)CC1 (stereo partly drawn) [Compound 416, 4-(6-chloro-8-fluoro-4-(4-methylazepan-1-yl)-2-(((S)-1-methylpyrrolidin-2-yl)-methoxy)quinazolin-7-yl)-benzo[d]thiazol-2-amine] |  |  | > 0.5 µM | < 0.5 µM
16 | Cc1ccc(C(N)=O)cc1-c1c(Cl)cc2c(N3CC4CCC(C3)N4)nc(OCC34CCCN3CCC4)nc2c1F [Compound 417, 3-(4-(3,8-diazabicyclo-[3.2.1]octan-3-yl)-6-chloro-8-fluoro-2-((tetrahydro-1H-pyrrolizin-7a(5H)-yl)meth-oxy)quinazolin-7-yl)-4-methylbenzamide] |  |  | > 0.5 µM | < 0.5 µM
